Measurements as given in patent US20110144001A1, “HIGHLY BRIDGED PEPTIDES FROM ACTINOMADURA NAMIBIENSIS” (SANOFI-AVENTIS, priority 2008, published 2011).

What was measured:
[1] = tested on: Bacillus subtilis (ATCC 6633); assay: microbe, parasite or virus in culture; format: cell-based; conditions: 37° C., 20 μl of 1 mg/ml test solution on 6 mm filter, 1 to 3 days
Description: (§1) The compounds were dissolved in water with 10% MeOH to a final concentration of 1 mg/ml. For the bioassay sterile Nunc plates with a size of 24×24 cm were used. For one plate 200 ml of agar were used. The agar was cooled after autoclaving to 55° C. and 2-4 ml of culture suspension of the test organism were added before plating. To each plate 64 filter plates with 6 mm in diameter were added. To each filter 20 μl of the test solution were added and incubated for 1 to 3 days at 28° C. or 37° C. The inhibition zone in mm was reported. For a detailed description of the methods, see Bauer et al., Amer. J. Clin. Pathol. 1966, 45, 493-496; Müller & Melchinger, Methoden in der Mikrobiologie, Franckhsche Verlagshandlung, Stuttgart (1964); Mueller & Hinton, Proc. Soc. Expt. Biol. Med. 1941, 48, 330-333.

[2] = tested on: Streptomyces murinus (DSM 40091); assay: microbe, parasite or virus in culture; format: cell-based; conditions: 28° C., 20 μl of 1 mg/ml test solution on 6 mm filter, 1 to 3 days
Description: as §1

[3] = tested on: SNI mouse model of neuropathic pain; assay: Spared nerve injury (SNI) mouse model of neuropathic pain, tactile allodynia by automatic von Frey test; format: in vivo, C57B6 mice; conditions: 3 mg/kg intravenous single application
Description: Labyrinthopeptin A1 was studied in the spared nerve injury (SNI) mouse model of neuropathic pain in order to proof the activity on tactile allodynia. Under general anesthesia, the two major branches of the sciatic nerve in adult male C57B6 mice (weight: 22.8 g+/−0.35 SEM) have been ligated and transsected, with the sural nerve left intact. Tactile allodynia has been determined with the automatic von Frey test: using a dump needle stick, the plantar skin of hind paws was exposed to a pressure stimulus of increasing intensity up to 5 g. The force in grams at which the animal responded with hindpaw withdrawal was used as a read-out for tactile allodynia. The study was performed 7 days after nerve lesion over 6 hours with an additional measurement after 24 hours. Within two days after nerve transsection, tactile allodynia developed completely and remained stable over at least two weeks. The compound was administered intravenous as a single application (3 mg/kg). As a vehicle for the intravenous application was the 1:1:18 (ethanol:solutol: phosphate buffered saline) vehicle chosen.
The effect was gone 24 hours after application. […] The percent benefit of the treatment was evaluated using the |AUC1-6 hour| values of the ipsilateral vehicle group (0% benefit) and all |AUC1-6 hour| values of the contralateral sides of all three groups (100% benefit=maximal possible effect). […]

## C/C=C1\NC(=O)[C@H](Cc2ccccc2)NC(=O)[C@@H]2CCCN2C(=O)[C@H](C(C)C)NC(=O)[C@H](Cc2c[nH]c3ccccc23)NC(=O)[C@]23CSC[C@H](NC1=O)C(=O)N[C@H](C(=O)NCc1ccccc1)CSSC[C@@H](NC(=O)[C@@H]1CSC[C@]4(C[C@H](NC(=O)OC(C)(C)C)C(=O)N[C@@H](CC(N)=O)C(=O)N[C@@H](C)C(=O)N4)C(=O)N[C@@H](C(C)C)C(=O)N[C@@H](Cc4c[nH]c5ccccc45)C(=O)N[C@@H](CCC(=O)NCc4ccccc4)C(=O)N1)C(=O)N[C@@H](C2)C(=O)N[C@@H]([C@@H](C)O)C(=O)NCC(=O)N3
[1]
  inhibition zone, Bacillus subtilis (ATCC 6633): 9 mm
[2]
  inhibition zone, Streptomyces murinus (DSM 40091): 7 mm

## C/C=C1\NC(=O)[C@H](Cc2ccccc2)NC(=O)[C@@H]2CCCN2C(=O)[C@H](C(C)C)NC(=O)[C@H](Cc2c[nH]c3ccccc23)NC(=O)[C@]23CSC[C@H](NC1=O)C(=O)N[C@H](C(=O)O)CSSC[C@@H](NC(=O)[C@@H]1CSC[C@]4(C[C@H](NC(=O)OC(C)(C)C)C(=O)N[C@@H](CC(N)=O)C(=O)N[C@@H](C)C(=O)N4)C(=O)N[C@@H](C(C)C)C(=O)N[C@@H](Cc4c[nH]c5ccccc45)C(=O)N[C@@H](CCC(=O)O)C(=O)N1)C(=O)N[C@@H](C2)C(=O)N[C@@H]([C@@H](C)O)C(=O)NCC(=O)N3 [Labyrinthopeptin A1 derivative, Ex. 16]
[1]
  inhibition zone, Bacillus subtilis (ATCC 6633): 9 mm
[2]
  inhibition zone, Streptomyces murinus (DSM 40091): 0 mm

## C/C=C1\NC(=O)[C@H](Cc2ccccc2)NC(=O)[C@@H]2CCCN2C(=O)[C@H](C(C)C)NC(=O)[C@H](Cc2c[nH]c3ccccc23)NC(=O)[C@]23CSC[C@H](NC1=O)C(=O)N[C@H](C(=O)O)CSSC[C@@H](NC(=O)[C@@H]1CSC[C@]4(C[C@H](NC(=O)OCCCCC)C(=O)N[C@@H](CC(N)=O)C(=O)N[C@@H](C)C(=O)N4)C(=O)N[C@@H](C(C)C)C(=O)N[C@@H](Cc4c[nH]c5ccccc45)C(=O)N[C@@H](CCC(=O)O)C(=O)N1)C(=O)N[C@@H](C2)C(=O)N[C@@H]([C@@H](C)O)C(=O)NCC(=O)N3 [Labyrinthopeptin A1 derivative, Ex. 18]
[1]
  inhibition zone, Bacillus subtilis (ATCC 6633): 8 mm
[2]
  inhibition zone, Streptomyces murinus (DSM 40091): 7 mm

## C/C=C1\NC(=O)[C@H](Cc2ccccc2)NC(=O)[C@@H]2CCCN2C(=O)[C@H](C(C)C)NC(=O)[C@H](Cc2c[nH]c3ccccc23)NC(=O)[C@]23CSC[C@H](NC1=O)C(=O)N[C@H](C(=O)O)CSSC[C@@H](NC(=O)[C@@H]1CSC[C@]4(C[C@H](N)C(=O)N[C@@H](CC(N)=O)C(=O)N[C@@H](C)C(=O)N4)C(=O)N[C@@H](C(C)C)C(=O)N[C@@H](Cc4c[nH]c5ccccc45)C(=O)N[C@@H](CCC(=O)O)C(=O)N1)C(=O)N[C@@H](C2)C(=O)N[C@@H]([C@@H](C)O)C(=O)NCC(=O)N3 [Labyrinthopeptin A1]
[1]
  inhibition zone, Bacillus subtilis (ATCC 6633): 16.5 mm
[2]
  inhibition zone, Streptomyces murinus (DSM 40091): 13 mm
[3]; 7 days after nerve lesion, 0% = ipsilateral vehicle, 100% = contralateral sides
  percent benefit of the treatment from |AUC1-6 hour| of paw withdrawal threshold: 95 % benefit
[3]; vs vehicle
  treatment effect on delta |AUC1-6 hour| of paw withdrawal threshold (1-way ANOVA, Dunnett analysis): significant treatment effects

## CN(C)[C@@H]1C(O)=C(C(N)=O)C(=O)[C@@]2(O)C(O)=C3C(=O)c4c(O)cccc4[C@@](C)(O)[C@H]3C[C@@H]12 [Tetracycline, reference compound]
[1]; Bacillus subtilis, ATCC6633
  zone of inhibition at 1000 µg/mL: 32 mm
[2]; Streptomyces murinus, DSM40091
  zone of inhibition at 1000 µg/mL: 24 mm
